We go through two compounds from patent US20140212800A1, “ELECTROPHOTOGRAPHIC PHOTOSENSITIVE MEMBER, PROCESS CARTRIDGE AND ELECTROPHOTOGRAPHIC APPARATUS” (CANON KABUSHIKI KAISHA, priority 2013, published 2014).

This data set can be described thus: Solubility of the charge transporting substance in 100 g of first / second solvent. The data set is classed as physicochemical. Particulars: 23° C., 1 atmosphere; for Solubility Y1: in 100 g of toluene (first solvent). On the procedure: The charge transporting layer satisfying the expressions (4-1) to (4-5) is formed by drying a coat of a charge-transporting-layer coating liquid containing the charge transporting substance, the binder resin, and the following first solvent and second solvent. Additionally, when the solubility of the charge transporting substance in 100 g of the first solvent in an environment at 23° C. under 1 atmosphere is designated as Y1(g), and the solubility of the charge transporting substance in 100 g of the second solvent in an environment at 23° C. under 1 atmosphere is designated as Y2(g), solubility Y1 and solubility Y2 satisfy the following expression (6).
Each of electrophotographic photosensitive members was produced in the same manner as in Example 1 except that the charge transporting substance represented by the formula (CTM-2), polyester resin A having the structural unit represented by the formula (1-18) and o-xylene in Example 1 were changed as shown in Table 1.

Consider `Cc1ccc(N(C=C(c2ccccc2)c2ccccc2)c2ccc(-c3ccc(N(C=C(c4ccccc4)c4ccccc4)c4ccc(C)cc4C)cc3)cc2)c(C)c1` [CTM-3], for which the “Solubility Y1” value was determined as 25 g.

For `C(/C=C/c1cccc(N(c2ccccc2)c2ccc(-c3ccc(N(c4ccccc4)c4cccc(/C=C/C=C/c5ccccc5)c4)cc3)cc2)c1)=C\c1ccccc1` [CTM-2], the “Solubility Y1” value is 20 g. The “Solubility Y2” value (in 100 g of acetophenone (second solvent)) is on record as 8 g. Also, where the note is “in 100 g of methyl benzoate (second solvent)”, the “Solubility Y2” value stood at 8 g.
